Assay results taken from patent US20240000872A1, “NOVEL BACTERIOPHAGE THAT LYSES ACINETOBACTER GENUS BACTERIA HAVING RESISTANCE TO ANTIBIOTICS” (priority 2020, published 2024).

Test system: Acinetobacter baumannii strains
Assay: Antibiotic susceptibility test (CLSI disk diffusion test method, read per CLSI 2016); for antibiotic susceptibility S/I/R: key: ‘S’ means susceptible; ‘I’ means intermediate; ‘R’ means resistant; for antibiotic susceptibility class: key: ‘S’ means susceptible; ‘I’ means intermediate; ‘R’ means resistant; for susceptibility category (S/I/R): key: ‘S’ means susceptible; ‘I’ means intermediate; ‘R’ means resistant
Assay type: cell-based
Set-up: antibiotic susceptibility test value / susceptibility test value (number given before S/I/R) / antibiotic susceptibility value: unit not given here

ampicillin-sulbactam
antibiotic susceptibility class (host strain YMC14/01/C29): R
antibiotic susceptibility test value (host strain YMC14/01/C29): 32
antibiotic susceptibility class (host strain YMC14/01/IP122): R
antibiotic susceptibility test value (host strain YMC14/01/IP122): 32
antibiotic susceptibility class (host strain YMC14/01/L8): R
antibiotic susceptibility test value (host strain YMC14/01/L8): 32
antibiotic susceptibility class (host strain YMC14/01/P31): R
antibiotic susceptibility test value (host strain YMC14/01/P31): 32
antibiotic susceptibility class (host strain YMC14/01/P117): R
antibiotic susceptibility test value (host strain YMC14/01/P117): 32
antibiotic susceptibility class (host strain YMC14/01/P224): I
antibiotic susceptibility test value (host strain YMC14/01/P224): 16
antibiotic susceptibility class (host strain YMC14/01/P727): R
antibiotic susceptibility test value (host strain YMC14/01/P727): 32
antibiotic susceptibility class (host strain YMC14/01/P728): I
antibiotic susceptibility test value (host strain YMC14/01/P728): 16
antibiotic susceptibility class (host strain YMC14/01/R130): I
antibiotic susceptibility test value (host strain YMC14/01/R130): 16
antibiotic susceptibility class (host strain YMC14/01/R160): R
antibiotic susceptibility test value (host strain YMC14/01/R160): 32
antibiotic susceptibility class (host strain YMC14/01/R198): R
antibiotic susceptibility test value (host strain YMC14/01/R198): 32
antibiotic susceptibility class (host strain YMC14/01/R257): R
antibiotic susceptibility test value (host strain YMC14/01/R257): 32
antibiotic susceptibility class (host strain YMC14/01/R270): R
antibiotic susceptibility test value (host strain YMC14/01/R270): 32
antibiotic susceptibility class (host strain YMC14/01/R324): S
antibiotic susceptibility test value (host strain YMC14/01/R324): 8
antibiotic susceptibility class (host strain YMC14/01/R443): R
antibiotic susceptibility test value (host strain YMC14/01/R443): 32
antibiotic susceptibility class (host strain YMC14/01/R451): R
antibiotic susceptibility test value (host strain YMC14/01/R451): 32
antibiotic susceptibility class (host strain YMC14/01/R560): R
antibiotic susceptibility test value (host strain YMC14/01/R560): 32
antibiotic susceptibility class (host strain YMC14/01/R617): R
antibiotic susceptibility test value (host strain YMC14/01/R617): 32
antibiotic susceptibility class (host strain YMC14/01/R671): R
antibiotic susceptibility test value (host strain YMC14/01/R671): 32
antibiotic susceptibility class (host strain YMC14/01/R732): R
antibiotic susceptibility test value (host strain YMC14/01/R732): 32
antibiotic susceptibility class (host strain YMC14/01/R767): I
antibiotic susceptibility test value (host strain YMC14/01/R767): 16
antibiotic susceptibility class (host strain YMC14/01/R904): R
antibiotic susceptibility test value (host strain YMC14/01/R904): 32
antibiotic susceptibility class (host strain YMC14/01/R905): R
antibiotic susceptibility test value (host strain YMC14/01/R905): 32
antibiotic susceptibility class (host strain YMC14/01/R921): I
antibiotic susceptibility test value (host strain YMC14/01/R921): 16
antibiotic susceptibility class (host strain YMC14/01/R941): R
antibiotic susceptibility test value (host strain YMC14/01/R941): 32
antibiotic susceptibility class (host strain YMC14/01/R958): I
antibiotic susceptibility test value (host strain YMC14/01/R958): 16
antibiotic susceptibility class (host strain YMC14/01/R1006): I
antibiotic susceptibility test value (host strain YMC14/01/R1006): 16
antibiotic susceptibility class (host strain YMC14/01/R1199): I
antibiotic susceptibility test value (host strain YMC14/01/R1199): 16
antibiotic susceptibility class (host strain YMC14/01/R1659): I
antibiotic susceptibility test value (host strain YMC14/01/R1659): 16
antibiotic susceptibility class (host strain YMC14/01/R1722): I
antibiotic susceptibility test value (host strain YMC14/01/R1722): 16
antibiotic susceptibility class (host strain YMC14/01/R1752): I
antibiotic susceptibility test value (host strain YMC14/01/R1752): 16
antibiotic susceptibility class (host strain YMC14/01/R2429): I
antibiotic susceptibility test value (host strain YMC14/01/R2429): 16
antibiotic susceptibility class (host strain YMC14/01/R2572): I
antibiotic susceptibility test value (host strain YMC14/01/R2572): 16
antibiotic susceptibility class (host strain YMC14/01/R2855): I
antibiotic susceptibility test value (host strain YMC14/01/R2855): 16
antibiotic susceptibility class (host strain YMC14/01/R2945): S
antibiotic susceptibility test value (host strain YMC14/01/R2945): 4
antibiotic susceptibility class (host strain YMC14/01/R3007): I
antibiotic susceptibility test value (host strain YMC14/01/R3007): 16
antibiotic susceptibility class (host strain YMC14/01/R3129): R
antibiotic susceptibility test value (host strain YMC14/01/R3129): 32
antibiotic susceptibility class (host strain YMC14/01/R3317): I
antibiotic susceptibility test value (host strain YMC14/01/R3317): 16
antibiotic susceptibility class (host strain YMC14/01/R3474): R
antibiotic susceptibility test value (host strain YMC14/01/R3474): 32
antibiotic susceptibility class (host strain YMC14/01/R3574): I
antibiotic susceptibility test value (host strain YMC14/01/R3574): 16
antibiotic susceptibility class (host strain YMC14/01/U313): S
antibiotic susceptibility test value (host strain YMC14/01/U313): 2
antibiotic susceptibility class (host strain YMC14/01/U318): R
antibiotic susceptibility test value (host strain YMC14/01/U318): 32
antibiotic susceptibility class (host strain YMC14/02/L18): I
antibiotic susceptibility test value (host strain YMC14/02/L18): 16
antibiotic susceptibility class (host strain YMC14/02/P47): R
antibiotic susceptibility test value (host strain YMC14/02/P47): 32
antibiotic susceptibility class (host strain YMC14/02/R1860): I
antibiotic susceptibility test value (host strain YMC14/02/R1860): 16
antibiotic susceptibility class (host strain YMC14/02/R2417): I
antibiotic susceptibility test value (host strain YMC14/02/R2417): 16
antibiotic susceptibility class (host strain YMC14/02/R2599): R
antibiotic susceptibility test value (host strain YMC14/02/R2599): 32
antibiotic susceptibility class (host strain YMC14/02/R2668): S
antibiotic susceptibility test value (host strain YMC14/02/R2668): 8
antibiotic susceptibility class (host strain YMC14/02/R2758): S
antibiotic susceptibility test value (host strain YMC14/02/R2758): 8
antibiotic susceptibility class (host strain YMC14/02/R2781): R
antibiotic susceptibility test value (host strain YMC14/02/R2781): 32
antibiotic susceptibility class (host strain YMC14/02/R3106): S
antibiotic susceptibility test value (host strain YMC14/02/R3106): 8
antibiotic susceptibility class (host strain YMC14/02/R3419): I
antibiotic susceptibility test value (host strain YMC14/02/R3419): 16
antibiotic susceptibility class (host strain YMC14/02/U1607): I
antibiotic susceptibility test value (host strain YMC14/02/U1607): 16
antibiotic susceptibility class (host strain YMC14/03/L9): I
antibiotic susceptibility test value (host strain YMC14/03/L9): 16
antibiotic susceptibility class (host strain YMC14/03/P471): S
antibiotic susceptibility test value (host strain YMC14/03/P471): 8
antibiotic susceptibility class (host strain YMC14/03/R122): R
antibiotic susceptibility test value (host strain YMC14/03/R122): 32
antibiotic susceptibility class (host strain YMC14/03/R217): I
antibiotic susceptibility test value (host strain YMC14/03/R217): 16
antibiotic susceptibility class (host strain YMC14/03/R380): S
antibiotic susceptibility test value (host strain YMC14/03/R380): 8
antibiotic susceptibility class (host strain YMC14/03/R618): S
antibiotic susceptibility test value (host strain YMC14/03/R618): 8
antibiotic susceptibility class (host strain YMC14/03/R2144): I
antibiotic susceptibility test value (host strain YMC14/03/R2144): 16
antibiotic susceptibility class (host strain YMC14/03/U4616): I
antibiotic susceptibility test value (host strain YMC14/03/U4616): 16
antibiotic susceptibility class (host strain YMC14/04/R1078): R
antibiotic susceptibility test value (host strain YMC14/04/R1078): 32
antibiotic susceptibility class (host strain YMC14/04/R1080): S
antibiotic susceptibility test value (host strain YMC14/04/R1080): 4
antibiotic susceptibility S/I/R (host strain YMC14/06/R2359): S
antibiotic susceptibility value (host strain YMC14/06/R2359): 8
susceptibility category (S/I/R) (host strain YMC14/06/R2359): S
susceptibility test value (number given before S/I/R) (host strain YMC14/06/R2359): 8
antibiotic susceptibility value (host strain YMC14/08/R1169): 16
susceptibility category (S/I/R) (host strain YMC14/08/R1169): I
susceptibility test value (number given before S/I/R) (host strain YMC14/08/R1169): 16
antibiotic susceptibility S/I/R (host strain YMC14/08/T90): S
antibiotic susceptibility value (host strain YMC14/08/T90): 8
susceptibility category (S/I/R) (host strain YMC14/08/T90): S
susceptibility test value (number given before S/I/R) (host strain YMC14/08/T90): 8
antibiotic susceptibility S/I/R (host strain YMC15/02/R436): R
antibiotic susceptibility value (host strain YMC15/02/R436): 32
susceptibility category (S/I/R) (host strain YMC15/02/R436): R
susceptibility test value (number given before S/I/R) (host strain YMC15/02/R436): 32
antibiotic susceptibility value (host strain YMC15/02/T28): 16
susceptibility category (S/I/R) (host strain YMC15/02/T28): I
susceptibility test value (number given before S/I/R) (host strain YMC15/02/T28): 16
antibiotic susceptibility value (host strain YMC15/03/R1604): 16
susceptibility category (S/I/R) (host strain YMC15/03/R1604): I
susceptibility test value (number given before S/I/R) (host strain YMC15/03/R1604): 16
antibiotic susceptibility value (host strain YMC15/09/R1869): 16
susceptibility category (S/I/R) (host strain YMC15/09/R1869): I
susceptibility test value (number given before S/I/R) (host strain YMC15/09/R1869): 16
antibiotic susceptibility S/I/R (host strain YMC16/01/P11): R
antibiotic susceptibility value (host strain YMC16/01/P11): 32
susceptibility category (S/I/R) (host strain YMC16/01/P11): R
susceptibility test value (number given before S/I/R) (host strain YMC16/01/P11): 32
antibiotic susceptibility S/I/R (host strain YMC16/01/R123): R
